The test system of test [1] is metabolism of retinoic acid in human breast cancer cells. Nature of the test: Inhibition of retinoic acid (RA) metabolism (Example C.1). In kind it is cell-based. To be noted: MCF-7 human breast cancer cells, 3H-RA as substrate, concentration needed to reduce the amount of metabolites to 50% of the control. The source says: The property to delay the metabolism of retinoic acid can be evidenced in various in vitro and in vivo experiments. A particular in vitro procedure is described in example C.1 and tests the inhibitory activity of the compounds of formula (I) on the metabolism of retinoic acid in human breast cancer cells. The compounds of the present invention were also effective in suppressing induced vaginal keratinization effects in ovariectomized rats as is described in example C.2.
Inhibition of Retinoic Acid (RA) Metabolism
MCF-7 human breast cancer cells were grown as stock cultures according to art-known protocols. One day before the experiment, RA is added to the stock cultures to stimulate RA-metabolism. At the start of the experiment, cell suspensions were incubated in a tissue culture medium containing ^3H-RA as the substrate. Different concentrations of the test compound (dissolved in 1% DMSO) were added to the incubation mixtures, and at the end of the incubation, the unmetabolized RA is separated from its polar metabolites. The fraction containing the polar ^3H-labelled metabolites was collected and counted in a scintillation counter. For each experiment, a control and a blank incubation were run in parallel. Table 22 list the IC50 value (defined as the concentration in M needed to reduce the amount of metabolites to 50% of the control).

For the next test, the system named is Ovariectomized rats. The experiment in a line: Vaginal keratinization test on ovariectomized rats (Example C.2). In kind it is in vivo. To be noted: estradiol undecylate induced keratinization, per os once daily on days 1-3, active dose = 50% of rats show complete suppression. The method, boiled down:
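Ovariectomized rats given s.c. estradiol undecylate (100 μg per 100 g body weight in sesame oil), then oral compound once daily on days 1-3 (vehicle PEG 200). Vaginas assessed histologically one day after last dose; lowest active dose (mg/kg) is the dose giving complete keratinization suppression in 50% of rats.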

We go through 44 compounds from US7179825B2, “Retinoic acid mimetic anilides” (Janssen Pharmaceutica N.V., priority 1997, dated 2007).

Molecules are shown by their SMILES.

Regarding `CCC(CC)C(c1ccc(NC(=O)C(O)c2ccc(C)c(C)c2)cc1)n1cncn1` (mixture of isomers) [Compound 11], in test [1], the IC50 amounted to 2.63 nM. Besides, the “LAD (lowest active dose)” value in the test with Ovariectomized rats is reported as over 2.50 mg/kg.
On to `CCC(CC)C(c1ccc(NC(=O)C2COc3ccccc3O2)cc1)n1ccnc1` (mixture of isomers) [Compound 23], for which, in test [1], the IC50 amounted to 0.503 nM. Moreover, the “LAD (lowest active dose)” value in the test on Ovariectomized rats amounted to 2.50 mg/kg.
The corresponding values for `CCC(CC)C(c1ccc(NC(=O)CC2COc3ccccc3O2)cc1)n1ccnc1` (mixture of isomers) [Compound 26] are 0.201 nM and 5.00 mg/kg.
As to `CCC(CC)C(c1ccc(NC(=O)C2COc3ccccc3C2)cc1)n1ccnc1` (mixture of isomers) [Compound 33], the IC50 in test [1] came to 1.01 nM. Further, the “LAD (lowest active dose)” value in the test on Ovariectomized rats is 5.00 mg/kg.
For `CC(C=Cc1ccccc1)C(=O)Nc1ccc(C(C(C)C)n2ccnc2)cc1` (mixture of isomers) [Compound 165], in that order: 10.8 nM and over 20.00 mg/kg.
For `CC(C(=O)Nc1ccc(C(C(C)C)n2ccnc2)cc1)=C(c1ccccc1)c1cccnc1` (mixture of isomers) [Compound 171], in that order: 85.8 nM and over 10.00 mg/kg.
The corresponding values for `CC1C(C(=O)Nc2ccc(C(C(C)C)n3ccnc3)cc2)=Cc2ccccc21` (mixture of isomers) [Compound 180] are 56.9 nM and over 10.00 mg/kg.
For the compound `CC(C)C(c1ccc(NC(=O)C2CC2C)cc1)n1ccnc1` (mixture of isomers) [Compound 197], the IC50 in test [1] turned out to be 5.61 nM. In the test on Ovariectomized rats, the “LAD (lowest active dose)” value is reported as over 10.00 mg/kg.
The corresponding values for `CC(C)C(c1ccc(NC(=O)C2CC2c2ccccc2)cc1)n1ccnc1.O=C(O)C(=O)O` (mixture of isomers) [Compound 204] are 4.58 nM and over 10.00 mg/kg.
In the case of `CC(C)C(c1ccc(NC(=O)C2COc3ccccc3C2)cc1)n1ccnc1` (mixture of isomers) [Compound 253], in test [1], the IC50 was 5.55 nM. The “LAD (lowest active dose)” value in the test on Ovariectomized rats is over 5.00 mg/kg.
The corresponding values for `CC(CC#N)C(c1ccc(NC(=O)Cc2ccc(Cl)cc2)cc1)n1ccnc1` (mixture of isomers) [Compound 371] are 3.59 nM and 10.00 mg/kg.
Consider `CCC(C)C(c1ccc(NC(=O)C(C)=Cc2ccccc2)cc1)n1ccnc1` (mixture of isomers) [Compound 480], for which the IC50 in test [1] came out at 4.25 nM. In the test on Ovariectomized rats, the “LAD (lowest active dose)” value is listed as 10.00 mg/kg.
As to `CCCCC(CC)C(c1ccc(NC(=O)C(C)=Cc2ccccc2)cc1)n1ccnc1` (mixture of isomers) [Compound 493], in test [1], the IC50 was 8.77 nM. For the same compound, the “LAD (lowest active dose)” value in the test on Ovariectomized rats is given as over 2.50 mg/kg.
In the case of `O=C(C=C(c1ccccc1)C1CCCCC1)Nc1ccc(C(c2ccc(Cl)cc2)n2ccnc2)cc1` (mixture of isomers) [Compound 514], the IC50 in test [1] was over 1000 nM. Besides, the “LAD (lowest active dose)” value in the test with Ovariectomized rats is over 20.00 mg/kg.
For `CC(C)C(=CC(=O)Nc1ccc(C(c2ccc(Cl)cc2)n2ccnc2)cc1)c1ccccc1` (mixture of isomers) [Compound 515], in that order: over 1000 nM and over 20.00 mg/kg.
In the case of `CC(C(=O)Nc1ccc(C(C(C)C)n2ccnc2)cc1)=C(c1ccccc1)c1ccsc1` (mixture of isomers) [Compound 518], in test [1], the IC50 is over 100 nM. Moreover, the “LAD (lowest active dose)” value with Ovariectomized rats was over 10.00 mg/kg.
As to `CCCC(=C(C)C(=O)Nc1ccc(C(C(C)C)n2ccnc2)cc1)c1ccccc1` (mixture of isomers) [Compound 519], the IC50 in test [1] came out at 3.8 nM. Moreover, the “LAD (lowest active dose)” value with Ovariectomized rats is given as over 10.00 mg/kg.
Take `CCC(C)C(c1ccc(NC(=O)Cc2ccc(OC)c(OC)c2)cc1)n1cncn1` (mixture of isomers) [Compound 640]: the IC50 in test [1] was 2.17 nM. Moreover, the “LAD (lowest active dose)” value with Ovariectomized rats is over 2.50 mg/kg.
In the case of `CC(C)C(c1ccc(NC(=O)C(c2ccccc2)C2CCCC2)cc1)n1ccnc1` (mixture of isomers) [Compound 659], the IC50 in test [1] is over 100 nM. Also, the “LAD (lowest active dose)” value in the test with Ovariectomized rats was over 10.00 mg/kg.
Consider `CCC(C(=O)Nc1ccc(C(C(C)C)n2ccnc2)cc1)c1ccccc1` (mixture of isomers) [Compound 660], for which the IC50 in test [1] is 6.37 nM. Further, the “LAD (lowest active dose)” value in the test with Ovariectomized rats is listed as over 10.00 mg/kg.
In the case of `CC(C)C(c1ccc(NC(=O)C(c2ccccc2)C2CCCCC2)cc1)n1ccnc1` (mixture of isomers) [Compound 661], in test [1], the IC50 stood at 34 nM. In addition, in the test with Ovariectomized rats, the “LAD (lowest active dose)” value is listed as over 10.00 mg/kg.
For `COC(C(=O)Nc1ccc(C(C(C)C)n2ccnc2)cc1)c1ccccc1` (mixture of isomers) [Compound 670], in that order: 5.72 nM and over 2.50 mg/kg.
Take `CC(C)C(c1ccncc1)c1ccc(NC(=O)Cc2ccc(Cl)cc2)cc1` (racemic) [Compound 685]: the IC50 in test [1] is 90.8 nM.
Turning to `CC(C)C(c1ccc(NC(=O)Cc2ccc(Cl)cc2)cc1)c1ccccn1` (racemic) [Compound 687], the IC50 in test [1] was over 100 nM.
With `CC(C)C(c1ccc(NC(N)=S)cc1)n1ccnc1` (racemic) [Compound 699, (±)-4-[1-(1H-imidazol-1-yl)-2-methylpropyl]phenylthiourea], the IC50 in test [1] (MCF7) came out at 9.69 nM.
With `O=C(Nc1ccc(C(c2ccc(Cl)cc2)n2ccnc2)cc1)Nc1cccc(F)c1` (racemic) [Compound 731], the IC50 in test [1] was over 100 nM.
For the compound `CCC(c1ccc(NC(=O)Cc2ccc(Cl)cc2)cc1)(C(C)C)n1ccnc1` (racemic) [Compound 755], the IC50 in test [1] worked out at 4.35 nM.
On to `CC(C)C(c1ccc(NC(=O)Cc2ccc(N)cc2)cc1)n1ccnc1` (single isomer, unassigned) [Compound 147], for which, in test [1], the concentration for half-maximal inhibition (IC50) stood at 33 nM.
Consider `CC(C)C(c1ccc(NC(=O)Cc2ccc(N=[N+]=[N-])c(I)c2)cc1)n1ccnc1` (single isomer, unassigned) [Compound 260], for which the IC50 in test [1] was found to be 2.43 nM.
On the same count and under the same terms, the value for `CC(C(c1ccc(NC(=O)Cc2ccc(O)c(Cl)c2)cc1)n1ccnc1)N(C)C` (single isomer, unassigned) [Compound 303] was 3.26 nM.
Regarding `COc1ccc(CC(=O)Nc2ccc(C(C(C)N(C)C)n3ccnc3)cc2)cc1Cl` (single isomer, unassigned) [Compound 305], the IC50 in test [1] is 0.0829 nM.
With `COc1ccc(CCCC(=O)Nc2ccc(C(C(C)N(C)C)n3ccnc3)cc2)cc1OC` (single isomer, unassigned) [Compound 336], the IC50 in test [1] amounted to 1.91 nM.
As to `CCC(C(c1ccc(NC(=O)Cc2ccc(OC)c(OC)c2)cc1)n1ccnc1)N(C)C` (single isomer, unassigned) [Compound 388], in test [1], the IC50 is 0.829 nM.
As for `CCCCCC(C)C(c1ccc(NC(=O)/C(C)=C/c2ccccc2)cc1)n1ccnc1` (single isomer, unassigned) [Compound 488], the IC50 in test [1] is over 100 nM.
Consider `CCC(CC)C(c1ccc(NC(C)=O)cc1)n1cncn1` (stereo not drawn) [Compound 1], for which, in test [1], the IC50 was 0.138 nM.
On the same count and under the same terms, the value for `CCC(CC)C(c1ccc(NC(=O)C(O)c2ccc(Cl)cc2)cc1)n1ccnc1` (stereo not drawn) [Compound 54] was 4.86 nM; that for `CC(C)C(c1ccc(NC(=O)Cc2ccc(N)cc2)cc1)n1ccnc1` (stereo not drawn) [Compound 145, (A)-4-amino-N-[4-[1-(1H-imidazol-1-yl)-2-methylpropyl]phenyl]benzeneacetamide] was 3.03 nM.
`CC(C)C(c1ccc(NC(=O)Cc2ccc(N=[N+]=[N-])c(I)c2)cc1)n1ccnc1` (stereo not drawn) [Compound 259, (B)-4-azido-N-[4-[1-(1H-imidazol-1-yl)-2-methylpropyl]phenyl]-3-iodobenzenacetamide]: the IC50 in test [1] was found to be 9.29 nM.
On the same count and under the same terms, the value for `CC(=O)Nc1ccc(C(c2cccc(F)c2)n2cncn2)cc1` (stereo not drawn) [Compound 616] was over 1000 nM.
Same read-out and setting: the value for `C/C(=C\c1ccccc1)C(=O)Nc1ccc(C(c2cccc(F)c2)n2cncn2)cc1` (stereo not drawn) [Compound 620] was over 1000 nM; that for `CC(C)C(c1ccc(NC(=O)Nc2cccc(F)c2)cc1)c1ccccn1` (stereo not drawn) [Compound 691] was over 100 nM.
In the case of `CC(C)C(c1ccc(NC(=N)Nc2cccc(F)c2)cc1)n1ccnc1` (stereo not drawn) [Compound 744, N′-(3-fluorophenyl)-N-[4-[1-(1H-imidazol-1-yl)-2-methylpropyl]phenyl]guanidine], the IC50 in test [1] (MCF7) was over 100 nM.
On to `CCC(CC)C(c1ccc(NC(=O)Cc2cccc(O)c2)cc1)n1ccnc1` (stereo not drawn) [Compound 780, (A)-N-[4-[2-ethyl-1-(1H-imidazol-1-yl)butyl]phenyl]-3-hydroxybenzeneacetamide ethanedioate (1:1)], for which the IC50 in test [1] stood at 4.57 nM.
Consider `CCC(CC)C(c1ccc(NC(=O)Cc2cccc(O)c2)cc1)n1ccnc1` (stereo not drawn) [Compound 781, (B)-N-[4-[2-ethyl-1-(1H-imidazol-1-yl)butyl]phenyl]-3-hydroxy-benzeneacetamide ethanedioate (1:1)], for which the IC50 in test [1] came to 3.24 nM.

One may read the IC50 as the midpoint of a concentration-inhibition curve.
